According to US6949381B2, “Immortalized human skin cell lines and novel serum-free medium useful for the production thereof” (Nestec S.A., priority 1995, dated 2005):

What was measured:
Format in all cases: cell-based, Human
[1] = test system: collagenase (type I); assay: Collagenase (type I) expression after phorbol ester treatment; settings: immortalized keratinocytes treated with phorbol esters
[2] = test system: normal keratinocytes; assay: Keratinocyte growth in serum-free media (cell count, FIG. 1); settings: serum free medium
Description: FIG. 1 compares the growth (in terms of cell number) of non-immortalized DKO-NR keratinocytes in three different media, i.e., NR-3, epinephrine-supplemented modified MCDB 153 and MCDB 153 after 6 days.
• 1) Characterization of Keratinocytes Growth in Serum-free Media: primary cell cultures were cultivated in modified MCDB 153 [Boyce et al., J. Tissue Cult. Meth., 9:83-93 (1985); and Pittlekow et al., J. Invest. Dermatol., 86:410-417, 1986] and NR-3 media.
FIG. 1 comprises cell growth in NR-3 and epinephrine-supplemented modified MCDB 153 (keratinocyte growth medium) after 6 days. The modified MCDB 153 medium refers to modified MCDB 153. Keratinocytes were harvested in trypsin/EDTA (0.05%/0.01%) and counted by using a hemocytometer. […] In particular, the results shown in Table 2 compare the growth of keratinocytes in coated and uncoated culture plates. 100,000 keratinocytes were seeded on 3.5 cm plates containing NR-3 medium.

[3] = test system: melanocytes (DM2-NR, normal); assay: Induction/inhibition of melanin synthesis in melanocytes; settings: T-Ag expressing melanocyte lines (especially DM2-NR), comparable to normal cells
Description: The melanocytes were treated with the melanogensis inducers tyrosin and theophylline and the melanogenesis inhibitor kojic acid.

Row | Structure (SMILES) | induction/inhibition of melanogenesis [3] | further results
1 | CCCCCCCCCCCCCC(=O)O[C@@H]1[C@@H](C)[C@@]2(O)[C@@H](C=C(CO)C[C@]3(O)C(=O)C(C)=C[C@@H]23)[C@@H]2C(C)(C)[C@]12OC(C)=O [PMA, phorbol-12-myristate-13-acetate] |  | collagenase (type I) expression [1]: increase of collagenase (type I) expression
2 | CNC[C@H](O)c1ccc(O)c(O)c1 [epinephrine] |  | growth of normal keratinocytes [2]: strong growth factor of normal keratinocytes
3 | O=c1cc(CO)occ1O [kojic acid] | dose dependent | 
4 | Cn1c(=O)c2[nH]cnc2n(C)c1=O [theophylline] | dose dependent | 
5 | N[C@@H](Cc1ccc(O)cc1)C(=O)O [tyrosin] | dose dependent | 
